Assay [1] has as its target human orexin-2 receptor (Homo sapiens (Human), UniProt O43614). The experiment in a line: In vitro assay: intracellular calcium measurements (FLIPR), antagonistic activity. Conditions: CHO cells, 3 nM orexin-A, compound incubation 120 min; marked values are geometric means of n = 2-6; read-out: IC50 OX2. It counts as cell-based. (In general: A change in cytosolic calcium serves as a functional read-out for many receptors and channels.)

Assay [2] deals with human orexin-1 receptor (Homo sapiens (Human), UniProt O43613). Described as above. The settings on record: CHO cells, 3 nM orexin-A, compound incubation 120 min; marked values are geometric means of n = 2-6; read-out: IC50 OX1. It is filed as cell-based.
Sequence of human orexin-1 receptor (O43613 whole entry): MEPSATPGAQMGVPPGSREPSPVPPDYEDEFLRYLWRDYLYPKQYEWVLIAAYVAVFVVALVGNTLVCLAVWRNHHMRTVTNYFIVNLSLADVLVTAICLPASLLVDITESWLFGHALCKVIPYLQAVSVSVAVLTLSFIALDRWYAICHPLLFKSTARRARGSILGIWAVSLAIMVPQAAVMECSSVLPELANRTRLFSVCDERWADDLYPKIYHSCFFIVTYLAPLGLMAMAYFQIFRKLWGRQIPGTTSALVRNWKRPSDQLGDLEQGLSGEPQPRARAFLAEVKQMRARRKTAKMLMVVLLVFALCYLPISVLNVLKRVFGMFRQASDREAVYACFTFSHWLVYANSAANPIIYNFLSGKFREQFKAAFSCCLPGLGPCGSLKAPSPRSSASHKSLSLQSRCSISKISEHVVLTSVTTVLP

Our source for the IC50 values is patent US9242970B2 (ACTELION PHARMACEUTICALS LTD., priority 2010, dated 2016).

Usually IC50 stands for the concentration needed to halve the response being measured.

Sequence of human orexin-2 receptor (O43614 whole entry): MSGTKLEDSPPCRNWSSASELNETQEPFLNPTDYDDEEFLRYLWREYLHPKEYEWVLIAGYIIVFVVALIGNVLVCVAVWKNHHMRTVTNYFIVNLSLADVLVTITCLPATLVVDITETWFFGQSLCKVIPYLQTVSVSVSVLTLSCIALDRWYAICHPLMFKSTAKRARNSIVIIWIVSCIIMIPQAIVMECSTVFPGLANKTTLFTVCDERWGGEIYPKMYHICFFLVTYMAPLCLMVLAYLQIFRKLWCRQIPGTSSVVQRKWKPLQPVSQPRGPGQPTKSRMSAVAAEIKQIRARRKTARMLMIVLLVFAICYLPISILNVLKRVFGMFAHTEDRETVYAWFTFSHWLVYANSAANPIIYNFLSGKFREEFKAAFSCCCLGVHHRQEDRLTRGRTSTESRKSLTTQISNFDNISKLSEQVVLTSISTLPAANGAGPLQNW

Take `COc1cccc(OC)c1C1CCCC(=O)N1Cc1cc(Cl)cc(-c2ccccn2)c1` (stereo not shown) [Example 49, 1-(3-chloro-5-(pyridin-2-yl)benzyl)-6-(2,6-dimethoxyphenyl)piperidin-2-one]: the IC50 was 11 nM in assay [1] and 28 nM in assay [2].

Regarding `COc1cccc(OC)c1C1CCCC(=O)N1Cc1ccnc(-c2ccccn2)c1` (stereo not shown) [Example 50, 1-([2,2′-bipyridin]-4-ylmethyl)-6-(2,6-dimethoxyphenyl)piperidin-2-one], the IC50 is 119 nM in assay [1] and 39 nM in assay [2].

As to `COc1cccc(OC)c1C1CCCC(=O)N1Cc1ccnc(-n2cccn2)c1` (stereo not shown) [Example 52, 1-((2-(1H-pyrazol-1-yl)pyridin-4-yl)methyl)-6-(2,6-dimethoxyphenyl)piperidin-2-one], the IC50 in assay [1] was 80 nM; in assay [2], 14 nM.

On to `COc1ccnc(OC)c1C1CCCC(=O)N1Cc1cccc(-c2nccs2)c1` (stereo not shown) [Example 53, 6-(2,4-dimethoxypyridin-3-yl)-1-(3-(thiazol-2-yl)benzyl)piperidin-2-one], for which the IC50 in assay [1] was found to be 22 nM; in assay [2], 33 nM.

Consider `COc1ccnc(OC)c1C1CCCC(=O)N1Cc1cccc(-c2csc(C)n2)c1` (stereo not shown) [Example 54, 6-(2,4-dimethoxypyridin-3-yl)-1-(3-(2-methylthiazol-4-yl)benzyl)piperidin-2-one], for which the values for the IC50 in assay [1] and in assay [2] were 13 nM and 15 nM, respectively.

Take `COc1ccnc(OC)c1C1CCCC(=O)N1Cc1cccc(-c2ccccn2)c1` (stereo not shown) [Example 55, 6-(2,4-dimethoxypyridin-3-yl)-1-(3-(pyridin-2-yl)benzyl)piperidin-2-one]: the IC50 in assay [1] turned out to be 95 nM; in assay [2], 96 nM.

`COc1ccnc(OC)c1C1CCCC(=O)N1Cc1csc(-c2ccccc2)n1` (stereo not shown) [Example 56, 6-(2,4-dimethoxypyridin-3-yl)-1-((2-phenylthiazol-4-yl)methyl)piperidin-2-one]: the IC50 in assay [1] is 6 nM; in assay [2] it was 141 nM.

Regarding `COc1ccnc(OC)c1C1CCCC(=O)N1Cc1ccc2oc3ccccc3c2c1` (stereo not shown) [Example 57, 1-(dibenzo[b,d]furan-2-ylmethyl)-6-(2,4-dimethoxypyridin-3-yl)piperidin-2-one], the IC50 in assay [1] was found to be 3 nM; in assay [2], 5 nM.

Regarding `COc1ccnc(OC)c1C1CCCC(=O)N1Cc1ccc2nc(C)sc2c1` (stereo not shown) [Example 58, 6-(2,4-dimethoxypyridin-3-yl)-1-((2-methylbenzo[d]thiazol-6-yl)methyl)piperidin-2-one], the results for the IC50 in assay [1] and in assay [2] were 1530 nM and 2560 nM, respectively.

Consider `COc1ccnc(OC)c1C1CCCC(=O)N1Cc1ccc(F)c(-c2ccccn2)c1` (stereo not shown) [Example 59, 6-(2,4-dimethoxypyridin-3-yl)-1-(4-fluoro-3-(pyridin-2-yl)benzyl)piperidin-2-one], for which the IC50 in assay [1] stood at 135 nM; in assay [2] it was 207 nM.

For the molecule `COc1ccnc(OC)c1C1CCCC(=O)N1Cc1cccc(-c2ccccc2)c1` (stereo not shown) [Example 60, 1-([1,1′-biphenyl]-3-ylmethyl)-6-(2,4-dimethoxypyridin-3-yl)piperidin-2-one], the IC50 in assay [1] amounted to 34 nM; in assay [2] it was 39 nM.

As for `COc1cncc(OC)c1C1CCCC(=O)N1Cc1cccc(-c2nccs2)c1` (stereo not shown) [Example 61, 6-(3,5-dimethoxypyridin-4-yl)-1-(3-(thiazol-2-yl)benzyl)piperidin-2-one], the IC50 stood at 26 nM in assay [1] and 40 nM in assay [2].

With `COc1cncc(OC)c1C1CCCC(=O)N1Cc1cccc(-c2csc(C)n2)c1` (stereo not shown) [Example 62, 6-(3,5-dimethoxypyridin-4-yl)-1-(3-(2-methylthiazol-4-yl)benzyl)piperidin-2-one], the IC50 in assay [1] came to 33 nM; in assay [2], 25 nM.

In the case of `COc1cncc(OC)c1C1CCCC(=O)N1Cc1cccc(-c2ccccn2)c1` (stereo not shown) [Example 63, 6-(3,5-dimethoxypyridin-4-yl)-1-(3-(pyridin-2-yl)benzyl)piperidin-2-one], the IC50 was determined as 90 nM in assay [1] and 135 nM in assay [2].

With `COc1cncc(OC)c1C1CCCC(=O)N1Cc1csc(-c2ccccc2)n1` (stereo not shown) [Example 64, 6-(3,5-dimethoxypyridin-4-yl)-1-((2-phenylthiazol-4-yl)methyl)piperidin-2-one], the IC50 in assay [1] worked out at 246 nM; in assay [2] it was 618 nM.

On to `COc1cncc(OC)c1C1CCCC(=O)N1Cc1ccc2oc3ccccc3c2c1` (stereo not shown) [Example 65, 1-(dibenzo[b,d]furan-2-ylmethyl)-6-(3,5-dimethoxypyridin-4-yl)piperidin-2-one], for which the IC50 in assay [1] amounted to 1 nM; in assay [2] it was 6 nM.

Turning to `COc1cncc(OC)c1C1CCCC(=O)N1Cc1cccc(-n2cccn2)n1` (stereo not shown) [Example 66, 1-((6-(1H-pyrazol-1-yl)pyridin-2-yl)methyl)-6-(3,5-dimethoxypyridin-4-yl)piperidin-2-one], the figures for the IC50 in assay [1] and in assay [2] were 3700 nM and 3100 nM, respectively.

`COc1cncc(OC)c1C1CCCC(=O)N1Cc1cccc(-n2nccn2)c1` (stereo not shown) [Example 67, 1-(3-(2H-1,2,3-triazol-2-yl)benzyl)-6-(3,5-dimethoxypyridin-4-yl)piperidin-2-one]: the IC50 in assay [1] amounted to 156 nM; in assay [2] it was 163 nM.

On to `COc1cncc(OC)c1C1CCCC(=O)N1Cc1cccc(-c2ccccc2)c1` (stereo not shown) [Example 68, 1-([1,1′-biphenyl]-3-ylmethyl)-6-(3,5-dimethoxypyridin-4-yl)piperidin-2-one], for which the figures for the IC50 in assay [1] and in assay [2] were 31 nM and 45 nM, respectively.

On to `COc1cccc(OC)c1C1CCCC(=O)N1Cc1cnc(OC(F)F)c(C)c1` (stereo not shown) [Example 69, 1-((6-(difluoromethoxy)-5-methylpyridin-3-yl)methyl)-6-(2,6-dimethoxyphenyl)piperidin-2-one], for which the IC50 in assay [1] amounted to 77 nM; in assay [2] it was 247 nM.

Consider `COc1cccc(OC)c1C1CCCC(=O)N1Cc1csc(C)n1` (stereo not shown) [Example 71, 6-(2,6-dimethoxyphenyl)-1-((2-methylthiazol-4-yl)methyl)piperidin-2-one], for which the IC50 in assay [1] is 6190 nM; in assay [2] it was greater than 12600 nM.

As to `COc1cccc(OC)c1C1CCCCC(=O)N1Cc1cccc(-c2ccccc2)c1` (stereo not shown) [Example 72, 1-([1,1′-biphenyl]-3-ylmethyl)-7-(2,6-dimethoxyphenyl)azepan-2-one], the values for the IC50 in assay [1] and in assay [2] were 12 nM and 3 nM, respectively.

Turning to `COc1cccc(OC)c1C1CCCCC(=O)N1Cc1ccc(Oc2ccccc2)cc1` (stereo not shown) [Example 73, 7-(2,6-dimethoxyphenyl)-1-(4-phenoxybenzyl)azepan-2-one], the IC50 came out at 187 nM in assay [1] and 186 nM in assay [2].

With `COc1cccc(OC)c1C1CCCCC(=O)N1Cc1cccc(Oc2ccccc2)c1` (stereo not shown) [Example 74, 7-(2,6-dimethoxyphenyl)-1-(3-phenoxybenzyl)azepan-2-one], the figures for the IC50 in assay [1] and in assay [2] were 98 nM and 137 nM, respectively.

As for `COc1cccc(OC)c1C1CCCCC(=O)N1Cc1ccc2ccccc2c1` (stereo not shown) [Example 75, 7-(2,6-dimethoxyphenyl)-1-(naphthalen-2-ylmethyl)azepan-2-one], the IC50 is 32 nM in assay [1] and 12 nM in assay [2].

As for `COc1cccc(OC)c1C1CCCCC(=O)N1Cc1ccc(-c2ccccc2)cc1` (stereo not shown) [Example 77, 1-([1,1′-biphenyl]-4-ylmethyl)-7-(2,6-dimethoxyphenyl)azepan-2-one], the IC50 worked out at 188 nM in assay [1] and 305 nM in assay [2].
